Reference: US20040204577A1, “Novel peptide-forming enzyme gene” (Ajinomoto Co., Inc., priority 2003, published 2004)
Where a SMILES comes first, the peptide text is derived from it.

Columns and labels:
[1] = tested on: microbial cells of Empedobacter brevis strain FERM BP-8113; assay: Production of peptide using microbial cells; type: cell-based; conditions: 1 mL cell suspension (100 g/L) + 1 mL buffer with 200 mM carboxy component (hydrochloride) and 400 mM amino acid; borate buffer pH 9.0, 10 mM EDTA; 18° C., 2 hours
Method: A 50 mL medium (pH 6.2) containing 5 grams (g) of glucose, 5 g of ammonium sulfate, 1 g of monopotassium phosphate, 3 g of dipotassium phosphate, 0.5 g of magnesium sulfate, 10 g of yeast extract and 10 g of peptone in 1 liter (L) was transferred to a 500 mL Sakaguchi flask and sterilized at 115° C. for 15 minutes. This medium was then inoculated with one loopful cells of Empedobacter brevis strain FERM BP-8113 (Depositary institution: the independent administrative corporation, National Institute of Advanced Industrial Science and Technology, International Patent Organism Depositary, Address of depositary institution: Chuo Dai-6, 1-1 Higashi 1-Chome, Tsukuba-shi, Ibaraki-ken, Japan, International deposit transfer date: Jul. 8, 2002) that had been cultured at 30° C. for 16 hours in the same medium, followed by shake culturing at 30° C. for 16 hours and 120 strokes/min.

[2] = tested on: peptide-forming enzyme (Mono S fraction enzyme); assay: Production of L-alanyl-L-glutamine from L-alanine methyl ester and L-glutamine with enzyme fraction; type: biochemical, Empedobacter brevis; conditions: for L-Ala-L-Gln: L-alanine methyl ester hydrochloride 100 mM, 18° C., 2 hours
Method: On the other hand, there was hardly any production of L-Ala-L-Gln observed in an enzyme-non-added lot, and the […] was only about 0.07 mM after reacting for 120 minutes.

[3] = tested on: microbial cells of Sphingobacterium sp. strain FERM BP-8124; assay: Production of L-alanyl-L-glutamine using microbial cells of Sphingobacterium sp.; type: cell-based; conditions: 0.1 mL cell suspension (100 g/L) + 0.1 mL buffer with 200 mM L-alanine methyl ester hydrochloride, 400 mM L-glutamine; pH 9.0, 25° C., 120 minutes
Method: A 50 ml medium (pH 7.0) containing 5 g of glucose, 5 g of ammonium sulfate, 1 g of monopotassium phosphate, 3 g of dipotassium phosphate, 0.5 g of magnesium sulfate, 10 g of yeast extract, and 10 g of peptone in 1 L was transferred to a 500 mL Sakaguchi flask and sterilized at 11 5° C. for 15 minutes for culturing Sphingobacterium sp. strain FERM BP-8124 (Depositary institution: the independent administrative corporation, National Institute of Advanced Industrial Science and Technology, International Patent Organism Depositary, Address of depositary institution: Chuo Dai-6, 1-1 Higashi 1-Chome, Tsukuba-shi, Ibaraki-ken, Japan, International deposit date: Jul. 22, 2002). This medium was then inoculated with one loopful cells of Sphingobacterium sp. strain FERM BP-8124 (Depositary institution: the independent administrative corporation, National Institute of Advanced Industrial Science and Technology, International Patent Organism Depositary, Address of depositary institution: Chuo Dai-6, 1-1 Higashi 1-Chome, Tsukuba-shi, Ibaraki-ken, Japan, International deposit date: Jul. 22, 2002) cultured at 30° C. for 24 hours in a slant agar medium (agar: 20 g/L, pH 7.0) containing 5 g of glucose, 10 g of yeast extract, 10 g of peptone and 5 g of NaCl in 1 L, followed by shake culturing at 30° C. for 20 hours and 120 strokes/minute. […]

Peptide formed, enzyme-added lot ([2]; 100 mM L-alanine methyl ester hydrochloride, 200 mM L-glutamine, 10 mM EDTA, pH 9.0, 18° C., FIG. 3): 83 mM
L-Ala-L-Gln ([2]; L-glutamine 100 mM): 68.2 mM
L-Ala-L-Gln ([2]; L-glutamine 110 mM): 72.1 mM
L-Ala-L-Gln ([2]; L-glutamine 120 mM): 73.3 mM
L-Ala-L-Gln ([2]; L-glutamine 130 mM): 75.1 mM
L-Ala-L-Gln ([2]; L-glutamine 150 mM): 75.5 mM
L-Ala-L-Gln ([2]; L-glutamine 200 mM): 82.0 mM
SMILES: C[C@H](N)C(=O)N[C@@H](CCC(N)=O)C(=O)O [L-Ala-L-Gln, L-alanyl-L-glutamine] (H-Ala-Gln-OH)
Formed peptide [1]: 68.0 mM
L-alanyl-L-glutamine formed [3]: 62 mM
